Experiment [1] concerns the target T1, recombinant human core RAG1 (AA387-1011)/core RAG2 (AA1-387) in the presence of HMGB1 (Homo sapiens, UniProt P15918+P55895).
T1 construct: made in house; host or cells: RAG1/RAG2 co-expressed in Expi293F GnTI human cells; HMGB1 in E. coli BL21DE3
T1 sequence (P15918 387-1011): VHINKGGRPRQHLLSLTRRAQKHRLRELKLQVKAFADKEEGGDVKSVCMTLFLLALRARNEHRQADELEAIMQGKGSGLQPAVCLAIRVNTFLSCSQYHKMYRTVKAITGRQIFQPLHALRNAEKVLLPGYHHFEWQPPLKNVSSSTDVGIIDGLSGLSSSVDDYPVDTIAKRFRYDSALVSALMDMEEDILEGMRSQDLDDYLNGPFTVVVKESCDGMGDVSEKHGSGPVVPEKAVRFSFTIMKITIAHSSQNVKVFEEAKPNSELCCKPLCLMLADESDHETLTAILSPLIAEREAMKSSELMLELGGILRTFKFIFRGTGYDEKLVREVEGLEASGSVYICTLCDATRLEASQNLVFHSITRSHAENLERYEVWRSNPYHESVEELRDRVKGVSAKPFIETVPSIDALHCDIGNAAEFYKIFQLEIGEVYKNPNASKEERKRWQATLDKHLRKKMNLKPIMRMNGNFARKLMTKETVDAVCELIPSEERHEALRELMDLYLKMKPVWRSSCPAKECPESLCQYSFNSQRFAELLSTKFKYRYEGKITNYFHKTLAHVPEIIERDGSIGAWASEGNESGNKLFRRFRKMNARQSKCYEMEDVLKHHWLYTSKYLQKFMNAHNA
T1 sequence (P55895 1-387): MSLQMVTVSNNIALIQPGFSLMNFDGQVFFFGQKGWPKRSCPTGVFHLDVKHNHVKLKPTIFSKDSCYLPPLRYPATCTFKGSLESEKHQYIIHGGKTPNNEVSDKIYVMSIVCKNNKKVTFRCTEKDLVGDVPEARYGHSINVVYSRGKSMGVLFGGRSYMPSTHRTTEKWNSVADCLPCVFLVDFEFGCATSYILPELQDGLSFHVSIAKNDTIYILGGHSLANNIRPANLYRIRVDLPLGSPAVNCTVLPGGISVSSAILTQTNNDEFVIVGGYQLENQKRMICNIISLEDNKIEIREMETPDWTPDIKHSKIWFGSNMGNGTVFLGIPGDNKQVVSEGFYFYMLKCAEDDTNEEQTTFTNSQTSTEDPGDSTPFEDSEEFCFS
The experiment in a line: Biochemical RAG DNA cleavage assay (gel-based, dsDNA 12RSS/23RSS substrate). The following applies: 25 nM RAG1-RAG2, 575 nM HMGB1, 10 nM dsDNA, 5 mM MgCl2, 1 h 37°C, no serum. The source says: To directly observe the potential inhibition of RAG1/RAG2, we measured the effect of INSTIs on DNA cleavage by RAG1/RAG2 in the presence of HMGB1. This biochemical system utilizes pre-assembled recombinant human core RAG1 (AA387-1011)/core RAG2 (AA1-387) in the presence of excess truncated HMGB1 (AA1-163) and a linear dsDNA RSS substrate, using gel electrophoresis and a fluorescent dye to monitor cleavage products (Fig. 2A) ([24]). The dsDNA RSS substrate, containing both the 12RSS and 23RSS, was designed to have the different cleavage products resolved via gel electrophoresis. RAG1/RAG2 can singly cleave either the 12RSS or the 23RSS, or both, leading to potentially five different products in the reaction (Fig. 2B). HMGB1 orients RAG1/RAG2 for proper binding to the RSS substrate ([16]). We quantified the activity of RAG as the percentage of substrate conversion to a specific cleaved product, as separated by agarose gel electrophoresis and determined by the DNA-binding fluorescent dye. With the 569-bp substrate, a single cleavage of the 12RSS results in a 492-bp dsDNA and a 77-bp hairpin. Cleavage of the 23RSS alone produces a 433-bp dsDNA and a 136-bp hairpin. Successful cleavage of both RSSs results in a 356-bp dsDNA and both of the 77- and 136-bp hairpins. For the RAG activity analysis, we measured the amount of double cleaved product (356 bp) in relation to the amount of substrate (569 bp) at the end of the reaction. The optimal concentrations of RAG1/RAG2, HMGB1, and MgCl2 were determined through titration (Fig. S2). Because there is no direct RAG1/RAG2 inhibitor previously characterized, we used suramin, a polyanionic compound commonly used as a non-specific inhibitor for DNA/RNA binding or processing proteins as a control for inhibition ([25], [26]).
Prior to the cleavage assay, compounds at the designated concentrations were spotted into 96-well plates using the Tecan Digital D300e (Tecan, Mannedorf, Switzerland). RAG1/RAG2 was incubated with HMGB1 and MgCl2 on ice for at least 15 min in a reaction buffer (25-mM 3-(N-morpholino)propanesulfonic acid [MOPS], pH 7.0, 50-mM KCl, and 2-mM DTT). After the initial incubation, the enzyme solution was added to the compound plates and incubated for an additional 15 min at room temperature. dsDNA substrate in reaction buffer was added to the plates to initiate the reaction. The final conditions of the reaction are 25-nM RAG1–RAG2 complex, 575-nM HMGB1, 10-nM dsDNA substrate, and 5-mM MgCl2. After 1 h at 37°C, reactions were quenched by the addition of final concentrations of 0.19% SDS, 45.5-µg/mL Proteinase K, and 60-mM EDTA.
Glycerol was added to a final concentration of 7.6% in each sample, and samples were loaded onto non-denaturing 6% Tris–borate–EDTA (TBE) gels in 1× TBE buffer. The samples were run at 100 V for 1.5 h, and gels were stained with 1× SYBR Gold in 1× TBE for 20 min. The stained gels were imaged with an Amersham Typhoon Biomolecular Imager.
The gel images were analyzed using ImageQuant software (Cytiva). The densities of the 569-bp-length substrate and fully cleaved 356-bp-length product were quantified. The product density was divided by the sum of substrate and product bands to obtain a percent product value. These calculated values were subtracted from a negative control (pre-quenched reaction where EDTA was added before reaction was initiated) and then normalized to the DMSO-treated control. The normalized data were plotted against concentration using GraphPad Prism (version 9.3; GraphPad Software, San Diego, CA, USA).

Experiment [2] has as its target T2, human core RAG1 (AA387-1011), MBP-10N-PreScission-RAG1 (human, UniProt P15918-1 387-1011).
T2 construct: also called RAG1 core domain; source: Expi293F GnTI cells, plasmids transfected (co-expressed with core RAG2), purified (MBP-Trap, Superdex 200); not shown: MBP, N-terminal, kept
T2 sequence (looked up): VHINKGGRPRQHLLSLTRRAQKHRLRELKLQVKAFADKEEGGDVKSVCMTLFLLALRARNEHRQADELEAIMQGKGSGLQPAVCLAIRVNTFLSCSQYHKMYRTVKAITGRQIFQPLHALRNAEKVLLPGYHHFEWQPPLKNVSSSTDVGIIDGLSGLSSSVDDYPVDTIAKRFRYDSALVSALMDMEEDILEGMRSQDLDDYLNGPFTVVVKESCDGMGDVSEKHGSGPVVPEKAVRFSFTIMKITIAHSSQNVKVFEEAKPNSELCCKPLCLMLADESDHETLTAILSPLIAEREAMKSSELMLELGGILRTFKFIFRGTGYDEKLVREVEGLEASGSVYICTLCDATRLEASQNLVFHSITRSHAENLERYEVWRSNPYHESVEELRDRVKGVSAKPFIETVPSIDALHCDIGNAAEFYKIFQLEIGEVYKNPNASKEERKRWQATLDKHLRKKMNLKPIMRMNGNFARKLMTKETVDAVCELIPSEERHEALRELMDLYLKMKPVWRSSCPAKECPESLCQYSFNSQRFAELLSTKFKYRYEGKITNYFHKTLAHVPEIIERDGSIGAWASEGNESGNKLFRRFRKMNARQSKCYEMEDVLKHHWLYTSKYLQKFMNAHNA
Briefly: SEC; analytical SEC-HPLC, Superdex 200 Increase 5/150 GL column, 10-µg protein sample; co-expressed and co-purified MBP-tagged core RAG1 and core RAG2. The following applies: both partners purified. For orientation: SEC sorts molecules by how far they enter the pores of the column.

The IC50 is the concentration at which inhibition is half-maximal. Regarding `Cc1ccc(C(=O)Nc2ccc(S(=O)(=O)O)c3cc(S(=O)(=O)O)cc(S(=O)(=O)O)c23)cc1NC(=O)c1cccc(NC(=O)Nc2cccc(C(=O)Nc3cc(C(=O)Nc4ccc(S(=O)(=O)O)c5cc(S(=O)(=O)O)cc(S(=O)(=O)O)c45)ccc3C)c2)c1` [Suramin], the IC50 in experiment [1] came out at 4.5 ± 0.4 µM.

B1: human core RAG2 (AA1-387), MBP-5A-RAG2 (domain or fragment, UniProt P55895 1-387, looked up)
chain: MSLQMVTVSNNIALIQPGFSLMNFDGQVFFFGQKGWPKRSCPTGVFHLDVKHNHVKLKPTIFSKDSCYLPPLRYPATCTFKGSLESEKHQYIIHGGKTPNNEVSDKIYVMSIVCKNNKKVTFRCTEKDLVGDVPEARYGHSINVVYSRGKSMGVLFGGRSYMPSTHRTTEKWNSVADCLPCVFLVDFEFGCATSYILPELQDGLSFHVSIAKNDTIYILGGHSLANNIRPANLYRIRVDLPLGSPAVNCTVLPGGISVSSAILTQTNNDEFVIVGGYQLENQKRMICNIISLEDNKIEIREMETPDWTPDIKHSKIWFGSNMGNGTVFLGIPGDNKQVVSEGFYFYMLKCAEDDTNEEQTTFTNSQTSTEDPGDSTPFEDSEEFCFS
notes: also called RAG2 core domain; source: Expi293F GnTI cells, plasmids transfected (co-expressed with core RAG1), purified (MBP-Trap, Superdex 200); not shown: MBP, N-terminal, kept
In the case of B1, in experiment [2], the binding result is reported as “binds”.

Values taken from article PMC11705955, “Lack of activity of HIV-1 integrase strand-transfer inhibitors on recombinase activating gene (RAG) activity at clinically relevant concentrations” (Microbiology Spectrum, 2024).
